Reference: patent US20260144796A1, “Compounds and Methods for Improving Health” (Acurx Pharmaceuticals, Inc., priority 2022, published 2026)
Values after ≈ are worked out from the molar mass of the structure shown. Like-named read-outs stand apart in the source and are kept apart here.

Experiments:
gut microbiome = assay: Phase 2a CDI clinical trial, gut microbiome (metagenomics); type: in vivo, human; details: CDI patients; for Proportion of isolated Firmicutes, Peptostreptococcaceae: baseline 2%; for Proportion of isolated Firmicutes, Other: baseline 5%; for Proportion of isolated Firmicutes, Ruminococcaceae: baseline 7%; for Proportion of isolated Firmicutes, Streptococcaceae: baseline 13%; for Proportion of isolated Firmicutes, Erysipelotrichaceae: baseline 18%; for Proportion of isolated Firmicutes, Lachnospiraceae: baseline 30%
Experimental: Phase 2a of this trial was an open label cohort of 10 subjects from study centers in the United States. In this cohort, 10 patients with diarrhea caused by mild or moderate C. difficile diagnosed via toxin EIA+ were treated with ibezapolstat 450 mg orally, twice daily for 10 days. All patients were followed for recurrence for 28±2 days. Stool was collected during course of therapy and at follow up. Patient fecal samples were evaluated for C. difficile culture and microbiome changes. […] Favorable microbiome changes included overgrowth of Actinobacteria and Firmicutes phylum species while on therapy. These findings support that microbiome effects may be predictive of beneficial patient outcomes including low rates of recurrence.
Phase 2a of this trial was an open label cohort of 10 subjects from study centers in the United States. In this cohort, 10 patients with diarrhea caused by mild or moderate C. difficile diagnosed via toxin EIA+ were treated with ibezapolstat 450 mg orally, twice daily for 10 days. Stool was collected during the course of therapy and at follow up.
Stool DNA was extracted using a DNAeasy Power Soil Pro kit (Qiagen, catalog number 1288-100) in a QiaCube automated DNA extraction system as previously described. (Garey K W, et al. A randomized, double-blind, placebo-controlled, single and multiple ascending dose Phase 1 study to determine the safety, pharmacokinetics and food and faecal microbiome effects of ibezapolstat administered orally to healthy subjects. J Antimicrob Chemother 2020; 75 (12): 3635-3643). Shotgun metagenomic sequencing was carried out at the University of Houston Sequencing and Gene Editing Core (Houston, TX USA) using the Nextera DNA Flex Library Prep Kit for DNA library preparation and an Illumina NextSeq 500 platform for sequencing. CLC Genomic Workbench version 12 (Qiagen) was used for metagenomic assembly and creation of the abundance table.
16S rRNA sequencing was performed to characterize microbial taxonomy as described in Gonzales-Luna 2021. The V3-V4 region of the 16S rRNA gene was sequenced using an Illumina-based sequencing platform with a minimum of 15,000 reads per sample to assess the gut microbiome community structure. Quality filtered sequence reads with at least 97% similarity were clustered into Operational Taxonomic Units (OTUs) and representative sequences from each OTU were assigned a taxonomic identity at the species level by searching against the NCBI 16S rRNA sequence database (release date Sep. 1, 2018) using NCBI BLAST+ package v2.8.1 2018.
The DNA extracted from fecal samples previously used for 16S rRNA sequencing was shotgun metagenome sequenced using an Illumina-based platform for analysis of microbiome functional genes. The functional gene profiling of the shotgun metagenome was performed using HUMAnN2 v0.11.2 pipeline.35 In the preprocessing step, quality filtering of sequencing reads was performed and followed by screening and removal of contaminant host (human) reads. Trimmomatic v0.38 was used for the filtering and trimming of raw sequence data with the default cut-off settings. The reads were searched against a human genome database in paired-end mode using bowtie2 algorithm and were discarded if they were mapped to the database. To obtain the gene family profiles, these quality-controlled metagenome sequences were first searched against a nucleotide database (ChocoPhlAn) using bowtie2 and then against a protein database (UniRef90) using diamond. All the identified gene families were annotated using UniRef90 and pathways using MetaCyc identifiers.

Clostridium tertium = assay: MIC determination, stool Firmicute isolates; type: cell-based
Dorea longicatena = assay: MIC determination, stool Firmicute isolates; type: cell-based; details: N=1
Enterococcus faecalis = assay: MIC determination, stool Firmicute isolates; type: cell-based
Enterococcus pseudoavium = assay: MIC determination, stool Firmicute isolates; type: cell-based; details: N=1
[1] = tested on: Lachnoclostridium pacaense; assay: MIC determination, stool Firmicute isolates; type: cell-based; details: Clostridium pacaense, N=1
Longibaculum sp. = assay: MIC determination, stool Firmicute isolates; type: cell-based; details: N=1
Melissococcus plutonius = assay: MIC determination, stool Firmicute isolates; type: cell-based; details: N=1
[2] = tested on: Paeniclostridium sordellii; assay: MIC determination, stool Firmicute isolates; type: cell-based; details: Paraclostridium sordellii
[3] = tested on: certain Firmicutes (Lachnospiraceae and Lactobacilluseae); assay: MIC, isolated gut microbiota species: certain Firmicutes; type: cell-based; details: inactive
Experimental: Strains plated onto blood agar (Hardy Diagnostics) with a 24-hour incubation at 37° C. in an anaerobic environment (Coy vinyl anaerobic chamber). After incubation, 3-5 well-isolated colonies were suspended into 5 mL of BHI broth (Criterion Media). The cultures were incubated in an anaerobic chamber for 24 hours to achieve a 0.5 McFarland Standard. […] Plates were allowed to dry in a sterile location. After drying, the plates were covered with foil to prevent any photo-damage to the hemin and placed in the anaerobic chamber for 1 hour to reduce the media. The broth culture was then spotted onto the plates and covered with foil. Plates were allowed to dry completely before inverting them for incubation for 48 hours. Plates were analyzed and MIC recorded.

[4] = tested on: C. difficile toxin A and B; assay: Toxin production by ELISA; type: cell-based; details: for reduction of toxin levels (toxin A and B), normalized to controls: sub-inhibitory concentrations, 24 h
Experimental: Toxin production was assessed by ELISA (tgcBiomics) according to the manufacturer instructions.

[5] = 450 mg orally twice daily 10 days, day 3
[6] = 450 mg orally twice daily 10 days, day 5
[7] = 450 mg orally twice daily 10 days, day 8
[8] = 450 mg orally twice daily 10 days, day 10
[9] = 450 mg orally twice daily 10 days, day 12

With `O=c1[nH]c(NCc2ccc(Cl)c(Cl)c2)nc2ncn(CCN3CCOCC3)c12` [Ibezapolstat, 2-((3,4-dichlorobenzyl)amino)-7-(2-morpholinoethyl)-1,7-dihydro-6H-purin-6-one] the “Proportion of isolated Firmicutes, Eubacteriales Family XIII” value (“Proportion … Eubacteriales Family XIII” below) (gut microbiome; [5]) was 2%, the “Proportion of isolated Firmicutes, Peptostreptococcaceae” value (“Proportion … Peptostreptococcaceae” below) (gut microbiome; [5]) was 1% and the “Proportion of isolated Firmicutes, Other” value (gut microbiome; [5]) was 9%. For the same compound, the “Proportion of isolated Firmicutes, Ruminococcaceae” value (shortened to “Proportion … Ruminococcaceae”) (gut microbiome; [5]) was 25%, the “Proportion of isolated Firmicutes, Streptococcaceae” value (gut microbiome; [5]) was 3% and the “Proportion of isolated Firmicutes, Erysipelotrichaceae” value (“Proportion … Erysipelotrichaceae” below) (gut microbiome; [5]) was 24%. For the same compound, the “Proportion of isolated Firmicutes, Lachnospiraceae” value (from here on “Proportion … Lachnospiraceae”) (gut microbiome; [5]) was 37%, the “Proportion … Eubacteriales Family XIII” value (gut microbiome; [6]) was 1% and the “Proportion of isolated Firmicutes, Other” value (gut microbiome; [6]) was 10%. For the same compound, the “Proportion … Ruminococcaceae” value (gut microbiome; [6]) was 38%, the “Proportion of isolated Firmicutes, Streptococcaceae” value (gut microbiome; [6]) was 1% and the “Proportion … Erysipelotrichaceae” value (gut microbiome; [6]) was 10%. For the same compound, the “Proportion … Lachnospiraceae” value (gut microbiome; [6]) was 38%, the “Proportion … Eubacteriales Family XIII” value (gut microbiome; [7]) was 3% and the “Proportion … Peptostreptococcaceae” value (gut microbiome; [7]) was 5%. For the same compound, the “Proportion of isolated Firmicutes, Other” value (gut microbiome; [7]) was 9%, the “Proportion … Ruminococcaceae” value (gut microbiome; [7]) was 30% and the “Proportion of isolated Firmicutes, Streptococcaceae” value (gut microbiome; [7]) was 4%. The “Proportion … Erysipelotrichaceae” value (gut microbiome; [7]) was 9%, the “Proportion of isolated Firmicutes, Veillonellaceae” value (gut microbiome; 450 mg orally twice daily 10 days, day 8, baseline 19%) was 5% and the “Proportion … Lachnospiraceae” value (gut microbiome; [7]) was 33%. The “Proportion … Eubacteriales Family XIII” value (gut microbiome; [8]) was 5%, the “Proportion … Peptostreptococcaceae” value (gut microbiome; [8]) was 4% and the “Proportion of isolated Firmicutes, Other” value (gut microbiome; [8]) was 8%. The “Proportion … Ruminococcaceae” value (gut microbiome; [8]) was 26%, the “Proportion of isolated Firmicutes, Streptococcaceae” value (gut microbiome; [8]) was 5% and the “Proportion … Erysipelotrichaceae” value (gut microbiome; [8]) was 17%. The “Proportion … Lachnospiraceae” value (gut microbiome; [8]) was 35%, the “Proportion … Eubacteriales Family XIII” value (gut microbiome; [9]) was 4% and the “Proportion … Peptostreptococcaceae” value (gut microbiome; [9]) was 6%. For the same compound, the “Proportion of isolated Firmicutes, Other” value (gut microbiome; [9]) was 10%, the “Proportion … Ruminococcaceae” value (gut microbiome; [9]) was 24% and the “Proportion of isolated Firmicutes, Streptococcaceae” value (gut microbiome; [9]) was 2%. For the same compound, the “Proportion … Erysipelotrichaceae” value (gut microbiome; [9]) was 6%, the “Proportion … Lachnospiraceae” value (gut microbiome; [9]) was 44% and the “Actinobacteria abundance after starting treatment” value (gut microbiome; primarily Coriobacteriales) was “increased in abundance”. The MIC50 (Clostridium tertium) was 12.5 µg/mL (≈ 29.5 µM), the MIC (Clostridium tertium; N=2, read-out: MIC Min) was 3.12 µg/mL (≈ 7.38 µM) and the MIC (Clostridium tertium; read-out: MIC Max) was 12.5 µg/mL (≈ 29.5 µM). For the same compound, the MIC50 (Dorea longicatena) was 3.12 µg/mL (≈ 7.38 µM), the MIC50 (Enterococcus faecalis) was 12.5 µg/mL (≈ 29.5 µM) and the MIC (Enterococcus faecalis; N=5, read-out: MIC Max) was 50 µg/mL (≈ 118 µM). It also gave an MIC (Enterococcus faecalis; read-out: MIC Min) of 12.5 µg/mL (≈ 29.5 µM), an MIC50 (Enterococcus pseudoavium) of 100 µg/mL (≈ 236 µM) and an MIC50 [1] of 25 µg/mL (≈ 59.1 µM). The MIC50 (Longibaculum sp.) was 50 µg/mL (≈ 118 µM), the MIC50 (Melissococcus plutonius) was 6.25 µg/mL (≈ 14.8 µM) and the MIC ([2]; read-out: MIC Max) was 12.5 µg/mL (≈ 29.5 µM). It also gave an MIC50 ([2]; Paeniclostridium sordellii, N=4) of 1.5 µg/mL (≈ 3.54 µM), an MIC ([2]; Paeniclostridium sordellii, N=4, read-out: MIC Min) of 0.75 µg/mL (≈ 1.77 µM) and an MIC [3] greater than 64 µg/mL. For the same compound, the “total toxin A and B production” value ([4]; strain CD 630, 24 hours of treatment) was “decreases total toxin A and B production in strain CD 630 in a dose-dependent manner”, the “reduction of toxin levels (toxin A and B), normalized to controls” value ([4]; strain CD 630) was 55% and the “reduction of toxin levels (toxin A and B), normalized to controls” value ([4]; strain R20291) was 60%.
